Source: patent publication US9550811B2, “Peptide scaffold design” (BIONOR IMMUNO AS, priority 2010, dated 2017)

What was measured:
Assay in all cases: REVEAL binding assay
Conditions in all cases: score as percentage of the signal generated by the positive control peptide
HLA-A1 = test system: HLA-A1
From the text: (§5) The REVEAL™ binding assay determined the ability of each candidate peptide to bind to one or more MHC class I alleles and stabilizing the MHC-peptide complex. […] Detection is based on the presence or absence of the native conformation of the MHC-peptide complex. Each peptide is given a score relative to the positive control peptide, which is a known T cell epitope.

HLA-A24 = test system: HLA-A24
HLA-A29 = test system: HLA-A29
HLA-B8 = test system: HLA-B8
From the text: as §5

HLA-B14 = test system: HLA-B14
From the text: as §5

HLA-B15 = test system: HLA-B15
From the text: as §5

HLA-A11 = HLA-A11 (Homo sapiens, UniProt P04439, A114D/F33Y/S129P)
Protocol: (§1) Binding properties to HLA for the ninemers listed in table 6 were tested for the following HLA-classes:
(§2) HLA-A1, HLA-A2, HLA-A3, HLA-A11, HLA-A24, HLA-A29, HLA-B7, HLA-B8, HLA-B14, HLA-B15, HLA-B27, HLA-B35, HLA-B40.
(§3) The peptides were synthesized as a Prospector PEPscreen®: Custom Peptide Library. […] Quality control by MALDI-TOF Mass Spectrometry was carried out on 100% of samples.
(§4) The REVEAL™ binding assay determined the ability of each candidate peptide to bind to one or more MHC class I alleles and stabilizing the MHC-peptide complex. By comparing the binding to that of high and intermediate affinity T cell epitopes, the most likely immunogenic peptides in a protein sequence can be identified. Detection is based on the presence or absence of the native conformation of the MHC-peptide complex. Each peptide is given a score relative to the positive control peptide, which is a known T cell epitope.

HLA-A2 = HLA-A2 (Homo sapiens, UniProt P04439, D140Y/D185E/D98H/E176V/E277Q/G131W/G231S/I119V/I121R/I166T/I218V/N151K/N90K/P208A/P217A/Q86G/Q94H/R138H/R169H)
Protocol: as §1, §2, §3, §4

HLA-A3 = HLA-A3 (Homo sapiens, UniProt P04439)
Protocol: as §1, §2, §3, §4

HLA-B27 = HLA-B27 (Homo sapiens, UniProt P01889, D138H/D201E/E176V/E204Q/G107R/H137Y/K202T/N104T/N87E/Q56L/Q94K/R106L/R155S/R180L/S101D/S121N/S48T/Y140D/Y33H/Y91C)
Protocol: as §1, §2, §3, §4

HLA-B7 = HLA-B7 (Homo sapiens, UniProt P01889)
Protocol: as §1, §2, §3, §4

HLA-B35 = test system: HLA-B35
From the text: as §5

HLA-B40 = test system: HLA-B40
Protocol: as §1, §2
The peptides were synthesized as a Prospector PEPscreen®: Custom Peptide Library. Peptides 8-15 amino acids in length were synthesized in 0.5-2 mg quantities with high average purity. Quality control by MALDI-TOF Mass Spectrometry was carried out on 100% of samples.
as §4, with “epitope. The score of the test peptide is reported quantitatively as a percentage of the signal generated by the positive control peptide, and the peptide is indicated as having a putative pass or fail result. Assay performance is confirmed by including an intermediate control peptide that is known to bind with weaker affinity to the allele under investigation.” for “epitope.”

Chain of HLA-A3 (P04439 25-299): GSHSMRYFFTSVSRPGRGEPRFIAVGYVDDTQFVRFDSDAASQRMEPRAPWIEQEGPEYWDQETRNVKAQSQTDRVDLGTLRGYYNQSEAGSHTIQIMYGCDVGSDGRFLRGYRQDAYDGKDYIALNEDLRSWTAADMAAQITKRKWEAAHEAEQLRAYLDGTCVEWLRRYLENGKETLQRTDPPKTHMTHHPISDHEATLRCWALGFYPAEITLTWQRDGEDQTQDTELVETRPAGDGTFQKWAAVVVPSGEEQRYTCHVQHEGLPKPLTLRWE
Chain of HLA-A3 (P61769 21-119, further chain): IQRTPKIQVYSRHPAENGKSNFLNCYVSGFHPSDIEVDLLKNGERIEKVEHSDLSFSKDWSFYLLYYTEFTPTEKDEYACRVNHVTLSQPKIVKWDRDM
Chain of HLA-B7 (P61769 21-119): as the sequence (P61769 21-119, further chain) above
Chain of HLA-B7 (P01889 25-299): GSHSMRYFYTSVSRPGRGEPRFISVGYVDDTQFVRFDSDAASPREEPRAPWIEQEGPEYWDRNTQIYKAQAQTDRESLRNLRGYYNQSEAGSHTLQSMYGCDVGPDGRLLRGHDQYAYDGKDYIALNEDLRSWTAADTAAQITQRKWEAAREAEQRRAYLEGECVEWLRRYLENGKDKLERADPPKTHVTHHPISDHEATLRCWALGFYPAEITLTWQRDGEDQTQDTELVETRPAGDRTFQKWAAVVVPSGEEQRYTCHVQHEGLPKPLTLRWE

Sequence | REVEAL binding score, HLA-type A1 (HLA-A1) [%] | REVEAL binding score, HLA-type A24 (HLA-A24) [%] | REVEAL binding score, HLA-type A29 (HLA-A29) [%] | REVEAL binding score, HLA-type B8 (HLA-B8) [%] | REVEAL binding score, HLA-type B14 (HLA-B14) [%] | REVEAL binding score, HLA-type B15 (HLA-B15) [%] | REVEAL binding score, HLA-type A11 (HLA-A11) [%] | REVEAL binding score, HLA-type A2 (HLA-A2) [%] | REVEAL binding score, HLA-type A3 (HLA-A3) [%] | REVEAL binding score, HLA-type B27 (HLA-B27) [%] | REVEAL binding score, HLA-type B7 (HLA-B7) [%] | REVEAL binding score, HLA-type B35 (HLA-B35) [%] | REVEAL binding score, HLA-type B40 (HLA-B40) [%]
ITFSIYLIV | 9.89 | 0.77 | 24.10 | 11.38 | 1.53 | 6.68 | 5.31 | 43.08 | 1.66 | 4.79 | 4.32 | 12.30 | 78.84
VIRVIAHGL | 18.66 | 0.28 | 27.12 | 32.81 | 0.55 | 9.64 | 4.54 | 8.60 | 4.29 | 1.16 | 29.93 | 2.51 | 52.64
VIDTLTCGF | 25.85 | 0.95 | 13.90 | 10.00 | 0.11 | 9.49 | 6.00 | 5.14 | 2.93 | 1.11 | 0.45 | 3.26 | 27.24
IIGGNYLIP | 21.14 | 10.95 | 13.88 | 12.18 | 1.17 | 19.93 | 2.81 | 8.27 | 3.88 | 0.97 | 15.47 | 5.35 | 65.43
IGGNYLIPR | 17.90 | 0.89 | 14.85 | 14.23 | 0.32 | 15.02 | 3.57 | 7.04 | 2.88 | 0.82 | 20.49 | 2.54 | 25.44
YIPLVGAPL | 21.80 | 4.51 | 31.09 | 33.10 | 0.13 | 54.57 | 3.54 | 35.00 | 5.29 | 0.69 | 41.87 | 99.81 | 30.22
RVIAHGLRL | 11.60 | 0.79 | 23.22 | 12.60 | 0.42 | 106.77 | 17.75 | 18.68 | 13.32 | 15.57 | 102.96 | 1.43 | 24.08
RVIETLTSG | 11.61 | 0.96 | 15.52 | 11.83 | 0.11 | 37.99 | 3.25 | 9.82 | 2.23 | 2.32 | 0.50 | 1.90 | 32.30
GYLPAVGAP | 12.04 | 0.35 | 26.03 | 17.38 | 0.11 | 10.50 | 4.25 | 5.87 | 2.90 | 0.73 | 3.10 | 1.84 | 27.82
ATGNLPGCS | 7.13 | 0.64 | 22.84 | 10.73 | 0.87 | 3.81 | 2.54 | 4.62 | 3.64 | 2.56 | 1.12 | 7.00 | 90.48
NLPGCSFSI | 13.15 | 85.91 | 22.34 | 9.89 | 0.36 | 3.11 | 3.47 | 47.28 | 8.15 | 3.37 | 1.54 | 5.31 | 60.68
VARALAHGV | 16.10 | 0.32 | 29.43 | 14.31 | 0.17 | 11.26 | 3.47 | 5.85 | 2.77 | 0.62 | 31.59 | 0.27 | 44.29
LMGYIPLVG | 14.17 | 0.51 | 24.26 | 20.75 | 0.08 | 9.43 | 2.13 | 31.94 | 2.53 | 1.44 | 0.41 | 0.81 | 33.55
IPLVGAPLG | 13.28 | 0.60 | 26.79 | 17.87 | 0.03 | 10.01 | 2.05 | 4.32 | 2.59 | 0.35 | 2.34 | 30.74 | 41.10
